From US10562861B2, “Carboxylic acid compounds” (Sumitomo Dainippon Pharma Co., Ltd., priority 2012, dated 2020)

Key:
Renca mouse tumour cells = assay: Tumour growth studies in Renca, a murine syngeneic renal carcinoma tumour model; assay type: in vivo; conditions: Balb/C mice, Renca s.c., vs 0.5% methylcellulose
Protocol: Experiments were conducted on female mice (Balb/C genotype, at least 5 weeks old). Renca mouse tumour cells (Cancer Chemother Pharmacol. 1995; 36 (1): 7-12) were kindly provided by Dr. T. Fujioka at Department of Urology, Iwate Medical University School of Medicine. Renca mouse tumour cells (5×10^4) were implanted subcutaneously in the flank of mice on day 0. Mice were treated with either drug vehicle (0.5% methylcellulose), the compound of Example 3 (0.3 mg/kg once a week) or the compound of Example 4 (3 mg/kg once a week) administered orally (p. o.) on days 1, 8, and 15. Tumour volumes were assessed at least twice weekly by bilateral vernier caliper measurements.
Tumour growth inhibition from the start of treatment was assessed by comparison of the differences in tumour growth rate between control and the compound of Example 3 treated groups, as shown in FIG. 9.
Tumour growth inhibition from the start of treatment was assessed by comparison of the differences in tumour growth rate between control and the compound of the Example 4 treated groups, as shown in FIG. 10.

CT26 mouse tumour cells = assay: Survival studies in CT26, a murine syngeneic colon carcinoma tumour model; assay type: in vivo; conditions: Balb/C mice, CT26 s.c., vs control or RT
Protocol: Experiments were conducted on female mice (Balb/C genotype, at least 5 weeks old). CT26 mouse tumour cells (CRL-2638) were purchased from ATCC. CT26 mouse tumour cells (1×10^6) were implanted subcutaneously in the flank of mice on day 0. Mice in radiotherapy alone (RT) group and combination group were anesthetized and received radiation therapy (2 Gy) at days 7, 8, 9, 10, and 11. Mice in combination group were also treated with a compound of Example 3 (30 mg/kg once a week) administered orally (p.o.) or Example 4 (5 mg/kg once a week) administered intravenously (i. v.) on days 7, 14, 22, and 27. Tumour volumes were assessed at least twice weekly by bilateral vernier caliper measurements. Survival period was determined by the time taken for tumours to reach 4 times the volume at the time of treatment.

SMILES | Tumour growth inhibition (Renca mouse tumour cells; 3 mg/kg once a week p.o. on days 1, 8, 15, FIG. 10) | Survival period (time for tumours to reach 4 times the volume at treatment) (CT26 mouse tumour cells; RT 2 Gy days 7-11 plus 5 mg/kg once a week i.v., FIG. 13) | Tumour growth inhibition (Renca mouse tumour cells; 0.3 mg/kg once a week p.o. on days 1, 8, 15, FIG. 9) | Survival period (time for tumours to reach 4 times the volume at treatment) (CT26 mouse tumour cells; RT 2 Gy days 7-11 plus 30 mg/kg once a week p.o., FIG. 12)
CCC[C@@H](CCO)Nc1nc(N)nc(C)c1Cc1ccc(CN(CC(=O)O)CC(F)(F)F)cc1OC [Example 4, (S)-2-((4-((2-amino-4-(1-hydroxyhexan-3-ylamino)-6-methylpyrimidin-5-yl)methyl)-3-methoxybenzyl)(2,2,2-trifluoroethyl)amino)acetic acid] | inhibited tumour growth | survived significantly longer | – | –
CCC[C@@H](CCO)Nc1nc(N)nc(C)c1Cc1ccc(CN(CC(=O)O)CC(F)F)cc1OC [Example 3, (S)-2-((4-((2-amino-4-(1-hydroxyhexan-3-ylamino)-6-methylpyrimidin-5-yl)methyl)-3-methoxybenzyl)(2,2-difluoroethyl)amino)acetic acid] | – | – | inhibited tumour growth | survived significantly longer
